Reference: US20090275583A1, “ANTIVIRAL COMPOUNDS AND USE THEREOF” (Myriad Genetics, Incorporated, priority 2006, published 2009)
Where two headings read alike, the source gives them in different places.

How the values were obtained:
[1] = test system: HIV-1 laboratory strain, NL4-3; experiment: MT-4 cytoprotection assay; type: cell-based
Procedure, shortened: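 MT-4 cells mock- or batch-infected with NL4-3 (MOI 0.0005) for 2 h, washed, then cultured 4 days with increasing compound concentrations. Viability read by WST-1 tetrazolium reduction: cytoprotection in infected cells, toxicity in mock-infected cells.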

[2] = test system: HIV-1NL4-3; experiment: P4-MAGI assay; type: cell-based
Procedure, shortened: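 Cytotoxicity (TC50, 50% growth inhibition) came from WST-1 in uninfected cells. For antiviral activity, compound at rising concentrations was added immediately after HIV-1NL4-3 inoculation (MOI 1, DEAE-Dextran) of P4 cells, CD4+ HeLa cells expressing β-galactosidase from a minimal HIV-1 LTR upon infection.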

[3] = Human immunodeficiency virus 1, NL43, MT4, 96 h, MT-4 cells, four days incubation, WST-1 readout, read-out: MT4 EC50
[4] = Human immunodeficiency virus 1, 24 h, P4 cells, 24 hour incubation, β-galactosidase expression, read-out: P4-MAGI IC50
[5] = Human immunodeficiency virus 1, NL43, less than about 100 nm, read-out: MT-4 assay EC50 (concentration of compound that reduces the virus induced cytopathic effect by 50%)
[6] = Human immunodeficiency virus 1, text statement, less than about 100 nm, read-out: P4-MAGI assay IC50

Structure (SMILES) | EC50 [1, 3] [nM] | IC50 [2, 4] [nM] | EC50 [1, 5] [nM] | IC50 [2, 6] [nM]
C=C(C)[C@@H]1CC[C@]2(C(=O)NCCc3cccc(C(=O)NCc4ccc(C(=O)O)o4)c3)CC[C@]3(C)C(CCC4[C@@]5(C)CC[C@H](O)C(C)(C)C5CC[C@]43C)C12 (stereo partly drawn) [Example 156] | 8 | 51 |  | 
C=C(C)[C@@H]1CC[C@]2(C(=O)NCc3ccc(F)c(C(=O)NCc4ccc(C(=O)O)cc4)c3)CC[C@]3(C)C(CCC4[C@@]5(C)CC[C@H](O)C(C)(C)C5CC[C@]43C)C12 (stereo partly drawn) [Example 107] | 130 | 103 |  | 
C=C(C)[C@@H]1CC[C@]2(C(=O)NCc3cccc(C(=O)NCCc4ccc(C(=O)O)cc4F)c3)CC[C@]3(C)C(CCC4[C@@]5(C)CC[C@H](O)C(C)(C)C5CC[C@]43C)C12 (stereo partly drawn) [Example 43] | 9.3 | 16.8 | < 100 | < 100
C=C(C)[C@@H]1CC[C@]2(C(=O)NCc3cccc(C(=O)NCc4cccc(C(=O)O)c4F)c3)CC[C@]3(C)C(CCC4[C@@]5(C)CC[C@H](O)C(C)(C)C5CC[C@]43C)C12 (stereo partly drawn) [Example 41] | 1.9 | 36.7 | < 100 | < 100
C=C(C)[C@@H]1CC[C@]2(C(=O)NCc3cccc(C(=O)NCc4cc(C(=O)O)ccc4F)c3)CC[C@]3(C)C(CCC4[C@@]5(C)CC[C@H](O)C(C)(C)C5CC[C@]43C)C12 (stereo partly drawn) [Example 26] | 200 | 78.6 |  | < 100
C=C(C)[C@@H]1CC[C@]2(C(=O)NCCc3cccc(C(=O)NCc4ccc(C(=O)N[C@H](Cc5ccc(O)cc5)C(=O)OC)cc4)c3)CC[C@]3(C)C(CCC4[C@@]5(C)CC[C@H](O)C(C)(C)C5CC[C@]43C)C12 (stereo partly drawn) [Example 165] | 20 | 13 |  | 
C=C(C)[C@@H]1CC[C@]2(C(=O)NCCc3cccc(C(=O)NCc4ccc(C(=O)N5CCNC(C(=O)O)C5)cc4)c3)CC[C@]3(C)C(CCC4[C@@]5(C)CC[C@H](O)C(C)(C)C5CC[C@]43C)C12 (stereo partly drawn) [Example 194] | 16 | 18 |  | 
CC(O)(CN1CCCC1)[C@@H]1CC[C@]2(C(=O)NCCc3cccc(C(=O)NCc4ccc(C(=O)O)cn4)c3)CC[C@]3(C)C(CCC4[C@@]5(C)CC[C@H](O)C(C)(C)C5CC[C@]43C)C12 (stereo partly drawn) [Example 270] | 441 | 100 |  | 
CC1(C)C2CC[C@]3(C)C(CCC4C5[C@H]([C@@](C)(O)CO)CC[C@]5(C(=O)NCCc5cccc(C(=O)NCc6ccc(C(=O)O)cn6)c5)CC[C@]43C)[C@@]2(C)CC[C@@H]1O (stereo partly drawn) [Example 271] | 1810 | 119 |  | 
C=C(C)[C@@H]1CC[C@]2(C(=O)NCc3cccc(C(=O)NCc4cccc(C(=O)O)c4C)c3)CC[C@]3(C)C(CCC4[C@@]5(C)CC[C@H](O)C(C)(C)C5CC[C@]43C)C12 (stereo partly drawn) [Example 17] | 87 | 32 | < 100 | < 100
C=C(C)[C@@H]1CC[C@]2(C(=O)NCCc3cccc(C(=O)NCc4ccc(C(=O)O)cc4)c3)CC[C@]3(C)C(CCC4[C@@]5(C)CC[C@H](O)C(C)(C)C5CC[C@]43C)C12 (stereo partly drawn) [Example 67] | 23 | 7.5 | < 100 | < 100
C=C(C)[C@@H]1CC[C@]2(C(=O)NCCc3cccc(C(=O)NCc4ccc(C(=O)NCc5ncccc5C(=O)O)cc4)c3)CC[C@]3(C)C(CCC4[C@@]5(C)CC[C@H](O)C(C)(C)C5CC[C@]43C)C12 (stereo partly drawn) [Example 195] | 5 | 6 |  | 
C=C(C)[C@@H]1CC[C@]2(C(=O)NCCc3cccc(C(=O)NCc4ccc(C(=O)NCCN5CCNCC5)cc4)c3)CC[C@]3(C)C(CCC4[C@@]5(C)CC[C@H](O)C(C)(C)C5CC[C@]43C)C12 (stereo partly drawn) [Example 192] | 7 | 7 |  | 
C=C(C)[C@@H]1CC[C@]2(C(=O)NCCc3cccc(C(=O)NCc4cccnc4C(=O)OC)c3)CC[C@]3(C)C(CCC4[C@@]5(C)CC[C@H](O)C(C)(C)C5CC[C@]43C)C12 (stereo partly drawn) [Example 229] | 44 | 7 |  | 
C=C(C)[C@@H]1CC[C@]2(C(=O)NCCc3cccc(C(=O)NCc4ccc(C(=O)N[C@H](C(=O)O)C(C)C)cn4)c3)CC[C@]3(C)C(CCC4[C@@]5(C)CC[C@H](O)C(C)(C)C5CC[C@]43C)C12 (stereo partly drawn) [Example 226] | 102 | 11.8 |  | 
C=C(C)[C@@H]1CC[C@]2(C(=O)NCc3cccc(C(=O)NCc4cccc(C(=O)O)c4)c3)CC[C@]3(C)C(CCC4[C@@]5(C)CC[C@H](O)C(C)(C)C5CC[C@]43C)C12 (stereo partly drawn) [Example 6] | 71 | 15.6 | < 100 | < 100
C=C(C)[C@@H]1CC[C@]2(C(=O)NCCc3cccc(C(=O)NCc4ccccc4)c3)CC[C@]3(C)C(CCC4[C@@]5(C)CC[C@H](O)C(C)(C)C5CC[C@]43C)C12 (stereo partly drawn) [Example 199] | 297 | 53.2 |  | 

Structure (SMILES) | EC50 [1, 3] [nM] | IC50 [2, 4] [nM] | EC50 [1, 5] [nM] | IC50 [2, 6] [nM]
C=C(C)[C@@H]1CC[C@]2(C(=O)NCc3cccc(C(=O)NCc4ccc(C(=O)O)c(F)c4)c3)CC[C@]3(C)C(CCC4[C@@]5(C)CC[C@H](O)C(C)(C)C5CC[C@]43C)C12 (stereo partly drawn) [Example 34] | 19 | 24.3 | < 100 | < 100
C=C(C)[C@@H]1CC[C@]2(C(=O)NCc3cccc(C(=O)NCCc4ccc(F)c(C(=O)O)c4)c3)CC[C@]3(C)C(CCC4[C@@]5(C)CC[C@H](O)C(C)(C)C5CC[C@]43C)C12 (stereo partly drawn) [Example 32] | 3000 | 15 |  | < 100
C=C(C)[C@@H]1CC[C@]2(C(=O)NCCc3cccc(C(=O)NCc4ccc(C(=O)NCCc5cnc[nH]5)cn4)c3)CC[C@]3(C)C(CCC4[C@@]5(C)CC[C@H](O)C(C)(C)C5CC[C@]43C)C12 (stereo partly drawn) [Example 272] | 12.4 | 3.1 |  | 
C=C(C)[C@@H]1CC[C@]2(C(=O)NCCc3cccc(C(=O)NCc4ccc(C(=O)N5CC(O)C[C@@H]5C(=O)O)cc4)c3)CC[C@]3(C)C(CCC4[C@@]5(C)CC[C@H](O)C(C)(C)C5CC[C@]43C)C12 (stereo partly drawn) [Example 178] | 35 | 21 |  | 
C=C(C)[C@@H]1CC[C@]2(C(=O)NCc3cc(C(=O)NCCc4cccc(C(=O)O)c4)ccc3F)CC[C@]3(C)C(CCC4[C@@]5(C)CC[C@H](O)C(C)(C)C5CC[C@]43C)C12 (stereo partly drawn) [Example 97] | 1 | 23.7 | < 100 | < 100
C=C(C)[C@@H]1CC[C@]2(C(=O)NCCc3cccc(C(=O)NCc4ccc(C(=O)N[C@H](CC(=O)OC)C(=O)OC)cn4)c3)CC[C@]3(C)C(CCC4[C@@]5(C)CC[C@H](O)C(C)(C)C5CC[C@]43C)C12 (stereo partly drawn) [Example 221] | 35 | 9 |  | 
C=C(C)[C@@H]1CC[C@]2(C(=O)NCCc3cccc(C(=O)NCc4ccc(OCCCN5CC(C)NC(C)C5)c(C(=O)O)c4)c3)CC[C@]3(C)C(CCC4[C@@]5(C)CC[C@H](O)C(C)(C)C5CC[C@]43C)C12 (stereo partly drawn) [Example 241] | 22.5 | 5 |  | 
C=C(COC)[C@@H]1CC[C@]2(C(=O)NCCc3cccc(C(=O)NCc4ccc(C(=O)O)cn4)c3)CC[C@]3(C)C(CCC4[C@@]5(C)CC[C@H](O)C(C)(C)C5CC[C@]43C)C12 (stereo partly drawn) [Example 266] | 24 | 8.3 |  | 
C=C(C)[C@@H]1CC[C@]2(C(=O)NCCc3cccc(C(=O)NCCc4c[nH]c5ccccc45)c3)CC[C@]3(C)C(CCC4[C@@]5(C)CC[C@H](O)C(C)(C)C5CC[C@]43C)C12 (stereo partly drawn) [Example 151] | 325 | 85 |  | 
C=C(C)[C@@H]1CC[C@]2(C(=O)NCCc3cccc(C(=O)NCc4ccc(C(=O)N(C)CCN(C)C)cc4)c3)CC[C@]3(C)C(CCC4[C@@]5(C)CC[C@H](O)C(C)(C)C5CC[C@]43C)C12 (stereo partly drawn) [Example 134] | 240 | 68.7 |  | < 100
C=C(C)[C@@H]1CC[C@]2(C(=O)NCCc3cccc(C(=O)NCc4ccc(OCCCn5ccnc5)c(C(=O)O)c4)c3)CC[C@]3(C)C(CCC4[C@@]5(C)CC[C@H](O)C(C)(C)C5CC[C@]43C)C12 (stereo partly drawn) [Example 242] | 91 | 41.3 |  | 
C=C(C)[C@@H]1CC[C@]2(C(=O)NCc3ccc(OC)c(C(=O)NCCCCC(=O)O)c3)CC[C@]3(C)C(CCC4[C@@]5(C)CC[C@H](O)C(C)(C)C5CC[C@]43C)C12 (stereo partly drawn) [Example 114] | 211 | 48.4 |  | < 100
C=C(C)[C@@H]1CC[C@]2(C(=O)NCCc3cccc(C(=O)NCc4ccc(O)c(C(=O)O)c4)c3)CC[C@]3(C)C(CCC4[C@@]5(C)CC[C@H](O)C(C)(C)C5CC[C@]43C)C12 (stereo partly drawn) [Example 240] | 33 | 19 |  | 
C=C(C)[C@@H]1CC[C@]2(C(=O)NCCc3cccc(C(=O)NCC4CCC(C(=O)O)CC4)c3)CC[C@]3(C)C(CCC4[C@@]5(C)CC[C@H](O)C(C)(C)C5CC[C@]43C)C12 (stereo partly drawn) [Example 211] | 19 | 11.2 |  | 
C=C(C)[C@@H]1CC[C@]2(C(=O)NCc3cccc(C(=O)NCc4ccc(F)c(C(=O)O)c4)c3)CC[C@]3(C)C(CCC4[C@@]5(C)CC[C@H](O)C(C)(C)C5CC[C@]43C)C12 (stereo partly drawn) [Example 27] | 73 | 53.5 | < 100 | < 100
C=C(C)[C@@H]1CC[C@]2(C(=O)NCCc3cccc(C(=O)NC(CCC(=O)OC)C(=O)OC)c3)CC[C@]3(C)C(CCC4[C@@]5(C)CC[C@H](O)C(C)(C)C5CC[C@]43C)C12 (stereo partly drawn) [Example 63] | 90 | 35.9 | < 100 | < 100
C=C(C)[C@@H]1CC[C@]2(C(=O)NCCc3cccc(C(=O)NCc4ccc(C#N)cn4)c3)CC[C@]3(C)C(CCC4[C@@]5(C)CC[C@H](O)C(C)(C)C5CC[C@]43C)C12 (stereo partly drawn) [Example 252] | 14 | 25 |  | 
